One assay addresses SlCOI1-SlJAZ11. Nature of the assay: AlphaScreen assay, GST-SlCOI1 and Fl-SlJAZP11. Particulars: calculated from AlphaScreen; 5 nM SlCOI1, 10 nM Fl-SlJAZP11. The format is binding, Solanum lycopersicum. As to the method: (§1) AlphaScreen experiments were performed at 25 °C in the incubation buffer. 15 μL of the reaction mixture containing the incubation buffer, 5 nM SlCOI1, 10 nM Fl-SlJAZPs and various concentrations of COR or JA-Ile was added to a 1/2 Area AlphaPlate-96 (PerkinElmer), and then incubated for 1 h at 4 °C. Then, 10 μL of a detection mixture containing incubation buffer, 0.1 μL of FITC-coated donor beads, 0.1 μL of GST-coated acceptor beads was added to each well. Finally, the mixture was incubated for 12 h and the luminescence signals were detected using the Envision 2105 Multimode Plate Reader (PerkinElmer). The experiment was repeated three times, and the data are presented as average values with standard deviation. To clarify the difference in the affinity of the ligands with each COI1/JAZ co-receptor, the results of the AlphaScreen assay are shown with the normalized signal intensity change (Figs. 3, 4, and Supplementary Fig. S9) along with the raw signal intensity (Supplementary Figs. S8, S10, and S13)[40].

The next assay deals with SlCOI1-SlJAZ6. Nature of the assay: AlphaScreen assay, GST-SlCOI1 and Fl-SlJAZP6. The format is binding, Solanum lycopersicum. Particulars: calculated from AlphaScreen; 5 nM SlCOI1, 10 nM Fl-SlJAZP6. On the procedure: as §1
The target in another assay is T1, SlCOI1-SlJAZ5 (Solanum lycopersicum, UniProt A0A3Q7FUH8+Q6TDU2).
T1 sequence (Q6TDU2 1-603): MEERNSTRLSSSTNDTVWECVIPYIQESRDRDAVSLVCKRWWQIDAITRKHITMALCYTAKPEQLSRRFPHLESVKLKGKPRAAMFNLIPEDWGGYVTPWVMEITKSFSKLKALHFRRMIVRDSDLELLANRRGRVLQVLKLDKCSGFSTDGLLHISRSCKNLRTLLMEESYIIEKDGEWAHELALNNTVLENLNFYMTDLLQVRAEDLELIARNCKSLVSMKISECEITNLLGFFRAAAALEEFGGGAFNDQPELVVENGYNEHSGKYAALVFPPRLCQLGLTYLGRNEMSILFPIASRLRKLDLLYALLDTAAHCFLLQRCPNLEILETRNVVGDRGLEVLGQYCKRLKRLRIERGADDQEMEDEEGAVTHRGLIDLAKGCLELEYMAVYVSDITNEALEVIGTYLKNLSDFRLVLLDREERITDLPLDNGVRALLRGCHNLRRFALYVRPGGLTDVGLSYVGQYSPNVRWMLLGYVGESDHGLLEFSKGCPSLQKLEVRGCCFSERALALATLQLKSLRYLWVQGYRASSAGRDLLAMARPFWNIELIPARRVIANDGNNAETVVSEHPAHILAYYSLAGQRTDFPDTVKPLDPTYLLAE
T1 sequence (A0A3Q7FUH8 327-353): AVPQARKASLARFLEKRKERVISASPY
T1 sequence (Q39255 1-160 partner): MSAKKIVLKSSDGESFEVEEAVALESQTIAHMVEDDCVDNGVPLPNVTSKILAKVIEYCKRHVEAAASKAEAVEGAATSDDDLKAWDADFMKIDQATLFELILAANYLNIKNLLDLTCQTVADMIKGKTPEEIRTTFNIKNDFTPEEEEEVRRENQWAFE
Put plainly: AlphaScreen assay, GST-SlCOI1 and Fl-SlJAZP5. In kind it is binding. Particulars: calculated from AlphaScreen, 5 nM SlCOI1, 10 nM Fl-SlJAZP5. On the procedure: as §1

A further assay deals with SlCOI1-SlJAZ8. Put plainly: AlphaScreen assay, GST-SlCOI1 and Fl-SlJAZP8. The format is binding, Solanum lycopersicum. Particulars: calculated from AlphaScreen; 5 nM SlCOI1, 10 nM Fl-SlJAZP8. On the procedure: as §1
The test system of assay [1] is GST-SlCOI1 with FLAG-SlJAZ1-3/5–8. Put plainly: Pull down assay of GST-SlCOI1 with FLAG-SlJAZ (full-length proteins). Particulars: ligand 100 nM; full-length FLAG-SlJAZ1-3/5–8; immunoblotting. The format is binding, Solanum lycopersicum. The text has this: (§2) SlJAZ genes were cloned from the tomato cultivar Micro-Tom and their FLAG-tag-fused proteins FLAG-SlJAZ1-11/13 expressed using the wheat germ-derived cell-free protein expression system (Supplementary Fig. S1). GST-fused SlCOI1 (GST-SlCOI1) was also expressed in Sf9 cultured insect cells (Supplementary Fig. S2). Arabidopsis ASK protein was co-expressed to improve the stability of SlCOI1[26].
(§3) Figure 2 (a) Pull down assay of GST-SlCOI1 with FLAG-SlJAZ (full-length proteins) in the presence of JA-Ile (100 nM). GST-SlCOI1 bound to FLAG-SlJAZ proteins was pulled down with anti-FLAG antibody and Protein G magnetic beads, and analyzed by immunoblotting (top: anti-GST-HRP conjugate for detection of GST-SlCOI1, bottom: anti-FLAG antibody and anti mouse-IgG HRP conjugate for detection of FLAG-SlJAZs). *or **show the bands derived from heavy chain or light chain of the anti-FLAG antibody. (b) Pull down assay of GST-SlCOI1 with Fl-SlJAZPs in the presence of JA-Ile (100 nM). GST-SlCOI1 bound to Fl-SlJAZPs was pulled down with anti-fluorescein antibody and Protein G magnetic beads, and analyzed by immunoblotting (anti-GST-HRP conjugate for detection of GST-SlCOI1).
(§4) All chemicals (JA-Ile or COR) were dissolved in ethanol to generate 10 mM stock solutions and diluted with 20% ethanol aq. for preparation of 100 μM stock solutions. For the pull-down experiments using full-length SlJAZ proteins, purified GST-COI1 (5 nM), FLAG-tagged SlJAZ (each 20 µL of the translation mixture), and the ligands (COR or JA-Ile) in 350 µL of incubation buffer (50 mM Tris–HCl buffer, pH 7.8, 100 mM NaCl, 20 mM 2-mercaptoethanol, 10% glycerol, 0.1% Tween20, 100 nM inositol-1,2,4,5,6-pentakisphosphate (IP5)) were combined with anti-FLAG antibody (0.2 µL, Sigma Aldrich, F1804, clone M2), and incubated for 10–15 h at 4 °C with rotation. After incubation, the samples were combined with SureBeads Protein G (10 µL in 50% incubation buffer slurry, Bio-Rad). After 3 h incubation at 4 °C with rotation, the samples were washed three times with 350 µL of fresh incubation buffer. The washed beads were resuspended in 35 µL of SDS-PAGE loading buffer containing dithiothreitol (DTT, 100 mM). After heating for 10 min at 60 °C, the samples were subjected to SDS-PAGE and analyzed by western blotting. The bound GST-COI1 protein was detected using anti-GST HRP conjugate (RPN1236, GE Healthcare, 5000-fold dilution in blocking buffer (Nakalai tesque, Inc., Japan). FLAG-JAZ proteins were detected using anti-FLAG antibody (1000-fold dilution in blocking buffer) and anti-mouse IgG-HRP antibody (Southern Biotech. Inc., Birmingham, US, 1031-05, 20,000-fold dilution in blocking buffer). Three independent replicates using proteins purified at different times were done with similar results (Supplementary Fig. S3).

Assay [2] relates to GST-SlCOI1 with FLAG-SlJAZ4/13. Described as above. The format is binding, Solanum lycopersicum. The following applies: ligand 100 nM; full-length FLAG-SlJAZ4/13; immunoblotting.
Text: as §2, §3, §4
On the technique in general: A western blot detects proteins with antibodies after separation by electrophoresis.

Assay [3] relates to GST-SlCOI1 with FLAG-SlJAZ9-11. The assay is described as above. The format is binding, Solanum lycopersicum. Particulars: ligand 100 nM; full-length FLAG-SlJAZ9-11; immunoblotting.
Text: as §2, §3, §4

The target in a further assay is SlCOI1-SlJAZ10. Put plainly: AlphaScreen assay, GST-SlCOI1 and Fl-SlJAZP10. In kind it is binding, Solanum lycopersicum. The following applies: calculated from AlphaScreen; 5 nM SlCOI1, 10 nM Fl-SlJAZP10. On the procedure:
as §1

A further assay deals with SlCOI1-SlJAZ9. Put plainly: AlphaScreen assay, GST-SlCOI1 and Fl-SlJAZP9. The format is binding, Solanum lycopersicum. The following applies: calculated from AlphaScreen; 5 nM SlCOI1, 10 nM Fl-SlJAZP9. As to the method:
as §1

The target of a further assay is T2, SlCOI1-SlJAZ7 (Solanum lycopersicum, UniProt Q6TDU2+Q9M723).
T2 sequence (Q6TDU2 1-603): T1 sequence (Q6TDU2 1-603)
T2 sequence (Q9M723 174-200): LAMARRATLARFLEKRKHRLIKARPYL
T2 sequence (Q39255 1-160 partner): T1 sequence (Q39255 1-160 partner)
Nature of the assay: AlphaScreen assay, GST-SlCOI1 and Fl-SlJAZP7. The format is binding. On the procedure:
as §1
On the technique in general: Alpha assays give light when donor and acceptor beads are brought close together.

The target of the next assay is T3, SlCOI1-SlJAZ13 (Solanum lycopersicum, UniProt A0A3Q7EQ67+Q6TDU2).
T3 sequence (Q6TDU2 1-603): T1 sequence (Q6TDU2 1-603)
T3 sequence (A0A3Q7EQ67 85-111): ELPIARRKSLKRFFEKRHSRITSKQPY
T3 sequence (Q39255 1-160 partner): T1 sequence (Q39255 1-160 partner)
Put plainly: AlphaScreen assay, GST-SlCOI1 and Fl-SlJAZP13. The format is binding. Particulars: calculated from AlphaScreen, 5 nM SlCOI1, 10 nM Fl-SlJAZP13. As to the method: as §1

A further assay has as its target T4, SlCOI1-SlJAZ1 (Solanum lycopersicum, UniProt A0A3Q7H988+Q6TDU2).
T4 sequence (Q6TDU2 1-603): T1 sequence (Q6TDU2 1-603)
T4 sequence (A0A3Q7H988 159-185): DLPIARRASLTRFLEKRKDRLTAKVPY
T4 sequence (Q39255 1-160 partner): T1 sequence (Q39255 1-160 partner)
Put plainly: AlphaScreen assay, GST-SlCOI1 and Fl-SlJAZP1. The format is binding. Particulars: calculated from AlphaScreen, 5 nM SlCOI1, 10 nM Fl-SlJAZP1. On the procedure: as §1

Assay [4] addresses GST-SlCOI1 and SlJAZP1-4DOD. Nature of the assay: AlphaScreen assay, GST-SlCOI1 and swapped SlJAZP1-4DOD. In kind it is binding, Solanum lycopersicum. Particulars: swapped peptide: DOD sequence of SlJAZP1 swapped with that of SlJAZP4.
Text: To examine the effect of the DOD sequence, we studied SlJAZP1-4/13 which incorporate the same JAZ degron sequence LPIARR and alternative DOD sequence XSLX. […] We prepared SlJAZP1-3DOD and SlJAZP1-4DOD, wherein the DOD sequence of SlJAZP1 was swapped with those of SlJAZP3 and SlJAZP4, respectively (Fig. 4a, and Supplementary Figs. S11–12). […] Next, we examined whether the DOD sequence also affected the affinity of SlJAZP5/6/8 with another JAZ degron sequence VPQARK. […] We prepared DOD swapped peptides SlJAZP5-2DOD (ASLA of SlJAZ5 to NSLT of SlJAZ2) and SlJAZP2-5DOD (NSLT of SlJAZ2 to ASLA of SlJAZ5) (Fig. 4a, and Supplementary Figs. S11–12).
as §1, with “To clarify the difference in the affinity of the ligands with each COI1/JAZ co-receptor, the results of the AlphaScreen assay are shown with the normalized signal intensity change (Figs. 3, 4, and Supplementary Fig. S9) along with the raw signal intensity (Supplementary Figs. S8, S10, and S13)[40].” left out

Molecules are shown by their SMILES. Where two headings read alike, the source gives them in different places.

As for `CC[C@H]1C=C(C(=O)N[C@@]2(C(=O)O)C[C@@H]2CC)[C@H]2CCC(=O)[C@H]2C1` [COR, coronatine], the Kd (as a rule, the free concentration of one partner at which half of the binding sites on the other are occupied at equilibrium, for simple one-to-one binding) at SlCOI1-SlJAZ11 was 0.0624 µM; at SlCOI1-SlJAZ6 it was 0.00076 µM; on SlCOI1-SlJAZ5, 0.00064 µM; on SlCOI1-SlJAZ8, 0.00039 µM; at SlCOI1-SlJAZ10 it was 0.0897 µM; at SlCOI1-SlJAZ9, 0.0447 µM. Moreover, the dissociation constant Kd on SlCOI1-SlJAZ7 was 0.00023 µM; on SlCOI1-SlJAZ13 it was 0.0807 µM; at SlCOI1-SlJAZ1 it was 0.0049 µM. In addition, the “pull-down of GST-SlCOI1” value in assay [1], in assay [2] and in assay [3] was “Identical results” throughout.
Turning to `CC/C=C\C[C@@H]1C(=O)CC[C@@H]1CC(=O)N[C@H](C(=O)O)[C@@H](C)CC` [JA-Ile, (+)-7-iso-Jasmonoyl-L-isoleucine], the Kd on SlCOI1-SlJAZ11 was 0.43 µM; at SlCOI1-SlJAZ6, 0.0041 µM; at SlCOI1-SlJAZ5 (read-out: Kd), 0.0042 µM; on SlCOI1-SlJAZ8, 0.0022 µM; at SlCOI1-SlJAZ10, 0.402 µM; on SlCOI1-SlJAZ9, 1.11 µM. Besides, the Kd at SlCOI1-SlJAZ7 (calculated from AlphaScreen, 5 nM SlCOI1, 10 nM Fl-SlJAZP7, read-out: Kd) was 0.0162 µM; on SlCOI1-SlJAZ13 (read-out: Kd) it was 0.637 µM; at SlCOI1-SlJAZ1 (read-out: Kd), 0.0092 µM; in [4] it was 0.0469 µM. Besides, the results for the “pull-down of GST-SlCOI1” value in assay [1], in assay [2] and in assay [3] were “pulled-down GST-SlCOI1”, “could not pull-down the GST-SlCOI1” and “not FLAG-SlJAZ9-11 pulled-down GST-SlCOI1”, respectively.

Values taken from publication PMC8245654, “Extended JAZ degron sequence for plant hormone binding in jasmonate co-receptor of tomato SlCOI1-SlJAZ” (Scientific Reports, 2021).
